Where “and” joins values, the source holds several entries; their conditions need not be identical. Equal entries are not always repeated.
Test: molar heat capacity at constant pressure
Details: 101.33 kPa, Crystal 2, Small (less than 1 g) adiabatic calorimetry

O=S(=O)([O-])[O-].[Sr+2] [sulfuric acid, strontium salt (1:1)]
Details	molar heat capacity at constant pressure
145.71 K	68.41 J/K/mol
145.74 K	68.47 J/K/mol
146.11 K	68.55 J/K/mol
148.91 K	69.29 J/K/mol
148.95 K	69.42 J/K/mol
149.31 K	69.49 J/K/mol
150 K	69.86 J/K/mol
152.12 K	70.28 J/K/mol
152.16 K	70.25 J/K/mol
152.52 K	70.41 J/K/mol
155.34 K	71.05 J/K/mol
155.38 K	71.08 J/K/mol
155.74 K	71.27 J/K/mol
158.56 K	71.97 J/K/mol
158.6 K	72 J/K/mol
158.97 K	72.09 J/K/mol
160 K	72.51 J/K/mol
161.8 K	72.79 J/K/mol
161.84 K	72.83 J/K/mol
162.22 K	72.92 J/K/mol
165.05 K	73.58 J/K/mol
165.09 K	73.59 J/K/mol
165.46 K	73.73 J/K/mol
168.3 K	74.28 J/K/mol
168.34 K	74.31 J/K/mol
168.72 K	74.49 J/K/mol
170 K	74.99 J/K/mol
171.55 K	75.15 J/K/mol
171.6 K	75.19 J/K/mol
171.99 K	75.27 J/K/mol
174.82 K	75.93 J/K/mol
174.86 K	75.97 J/K/mol
175.25 K	76.02 J/K/mol
178.09 K	76.68 J/K/mol
178.13 K	76.74 J/K/mol
178.53 K	76.77 J/K/mol
180 K	77.33 J/K/mol
181.37 K	77.42 J/K/mol
181.41 K	77.48 J/K/mol
181.81 K	77.53 J/K/mol
184.66 K	78.14 J/K/mol
184.69 K	78.22 J/K/mol
185.09 K	78.29 J/K/mol
187.96 K	78.91 J/K/mol
187.99 K	78.94 J/K/mol
188.38 K	78.97 J/K/mol
190 K	79.65 J/K/mol
191.26 K	79.72 J/K/mol
191.28 K	79.71 J/K/mol
191.67 K	79.8 J/K/mol
194.56 K	80.51 J/K/mol and 80.47 J/K/mol
194.96 K	80.64 J/K/mol
197.83 K	81.24 J/K/mol
197.85 K	81.22 J/K/mol
198.25 K	81.33 J/K/mol
200 K	81.87 J/K/mol
201.09 K	81.92 J/K/mol
201.14 K	81.8 J/K/mol
201.53 K	81.9 J/K/mol
204.35 K	82.54 J/K/mol
204.42 K	82.41 J/K/mol
204.81 K	82.55 J/K/mol
207.6 K	83.18 J/K/mol
207.7 K	82.95 J/K/mol
208.08 K	83.16 J/K/mol
210 K	83.8 J/K/mol
210.83 K	83.81 J/K/mol
210.94 K	83.69 J/K/mol
211.34 K	83.83 J/K/mol
214.05 K	84.44 J/K/mol
214.18 K	84.34 J/K/mol
214.58 K	84.5 J/K/mol
217.26 K	85.04 J/K/mol
217.41 K	84.95 J/K/mol
217.8 K	85.11 J/K/mol
220 K	85.76 J/K/mol
220.45 K	85.67 J/K/mol
220.61 K	85.61 J/K/mol
221.01 K	85.74 J/K/mol
223.62 K	86.31 J/K/mol
223.8 K	86.22 J/K/mol
224.21 K	86.36 J/K/mol
226.78 K	86.94 J/K/mol
226.98 K	86.85 J/K/mol
227.39 K	86.96 J/K/mol
229.93 K	87.58 J/K/mol
230 K	87.75 J/K/mol
230.13 K	87.48 J/K/mol
230.55 K	87.57 J/K/mol
233.05 K	88.24 J/K/mol
233.27 K	88.13 J/K/mol
233.75 K	88.27 J/K/mol
236.17 K	88.83 J/K/mol
236.39 K	88.63 J/K/mol
236.88 K	88.89 J/K/mol
239.32 K	89.46 J/K/mol
239.54 K	89.39 J/K/mol
239.99 K	89.5 J/K/mol
240 K	89.75 J/K/mol
242.4 K	90.05 J/K/mol
242.63 K	89.95 J/K/mol
243.09 K	90.06 J/K/mol
245.47 K	90.64 J/K/mol
245.71 K	90.56 J/K/mol
246.17 K	90.67 J/K/mol
248.53 K	91.22 J/K/mol
248.77 K	91.15 J/K/mol
249.24 K	91.23 J/K/mol
250 K	91.7 J/K/mol
251.58 K	91.85 J/K/mol
251.81 K	91.78 J/K/mol
252.29 K	91.85 J/K/mol
254.61 K	92.43 J/K/mol
254.84 K	92.37 J/K/mol
255.33 K	92.47 J/K/mol
257.63 K	93 J/K/mol
257.87 K	92.94 J/K/mol
258.36 K	93.06 J/K/mol
260 K	93.66 J/K/mol
260.65 K	93.58 J/K/mol
260.88 K	93.56 J/K/mol
261.38 K	93.65 J/K/mol
263.66 K	94.16 J/K/mol
263.89 K	94.13 J/K/mol
264.39 K	94.26 J/K/mol
266.66 K	94.77 J/K/mol
266.89 K	94.7 J/K/mol
267.4 K	94.85 J/K/mol
269.66 K	95.39 J/K/mol
269.89 K	95.3 J/K/mol
270 K	95.59 J/K/mol
270.4 K	95.47 J/K/mol
272.64 K	95.96 J/K/mol
272.87 K	95.81 J/K/mol
273.15 K	96.15 J/K/mol
273.39 K	95.92 J/K/mol
275.63 K	96.38 J/K/mol
275.85 K	96.25 J/K/mol
276.38 K	96.39 J/K/mol
278.61 K	96.87 J/K/mol
278.83 K	96.75 J/K/mol
279.36 K	96.87 J/K/mol
280 K	97.3 J/K/mol
281.59 K	97.38 J/K/mol
281.8 K	97.23 J/K/mol
282.43 K	97.36 J/K/mol
284.56 K	97.83 J/K/mol
284.76 K	97.73 J/K/mol
285.4 K	97.91 J/K/mol
287.65 K	98.39 J/K/mol
287.81 K	98.24 J/K/mol
288.36 K	98.43 J/K/mol
290 K	98.96 J/K/mol
290.61 K	98.91 J/K/mol
290.76 K	98.75 J/K/mol
291.32 K	98.96 J/K/mol
293.57 K	99.37 J/K/mol
293.71 K	99.22 J/K/mol
294.28 K	99.43 J/K/mol
296.52 K	99.84 J/K/mol
296.64 K	99.69 J/K/mol
297.22 K	99.88 J/K/mol
298.15 K	100.3 J/K/mol
299.46 K	100.34 J/K/mol
299.56 K	100.14 J/K/mol
300 K	100.59 J/K/mol
300.17 K	100.26 J/K/mol
302.4 K	100.79 J/K/mol
302.48 K	100.58 J/K/mol
303.1 K	100.8 J/K/mol
305.33 K	101.19 J/K/mol
305.39 K	101 J/K/mol
306.03 K	101.22 J/K/mol
308.26 K	101.58 J/K/mol
308.3 K	101.41 J/K/mol
308.95 K	101.59 J/K/mol
310 K	102.03 J/K/mol
311.18 K	102.01 J/K/mol
311.19 K	101.81 J/K/mol
311.87 K	101.99 J/K/mol
314.08 K	102.29 J/K/mol
314.09 K	102.44 J/K/mol
314.78 K	102.4 J/K/mol
316.97 K	102.72 J/K/mol
316.99 K	102.82 J/K/mol
317.69 K	102.79 J/K/mol
319.85 K	103.14 J/K/mol
319.89 K	103.15 J/K/mol
320 K	103.44 J/K/mol
320.59 K	103.18 J/K/mol
322.73 K	103.57 J/K/mol
322.78 K	103.57 J/K/mol
